ChEMBL document CHEMBL1201862, “PubChem BioAssay data set” (2004)
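Protocol summary: plate cells (96-well), add compound at 5 concentrations, incubate 48 h, interpolate endpoints linearly. GI50: concentration for 50% inhibition of growth.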 Calls of active or inactive are those of the source. Cut-off read from the data, not from the text of the source: active = GI50 up to about 1.1 µM and inactive = higher.

Legend:
Test in all cases: growth of human tumour cells (NCI), 48 h
A549 = test system: A549
MOLT-4 = test system: MOLT-4
786-0 = test system: 786-0
NCI-H522 = test system: NCI-H522
UO-31 = test system: UO-31
Malme-3M = test system: Malme-3M
LOX IMVI = test system: LOX IMVI
SK-MEL-2 = test system: SK-MEL-2
SNB-75 = test system: SNB-75
HOP-92 = test system: HOP-92
OVCAR-4 = test system: OVCAR-4
DU-145 = test system: DU-145
SN12C = test system: SN12C
SF-268 = test system: SF-268
SK-MEL-5 = test system: SK-MEL-5
UACC-257 = test system: UACC-257
OVCAR-3 = test system: OVCAR-3
U-251 = test system: U-251
NCI-H23 = test system: NCI-H23

| SMILES | GI50 (A549) | GI50 (MOLT-4) | GI50 (786-0) | GI50 (NCI-H522) | GI50 (UO-31) | GI50 (Malme-3M) | GI50 (LOX IMVI) | GI50 (SK-MEL-2) | GI50 (SNB-75) | GI50 (HOP-92) | GI50 (OVCAR-4) | GI50 (DU-145) | GI50 (SN12C) | GI50 (SF-268) | GI50 (SK-MEL-5) | GI50 (UACC-257) | GI50 (OVCAR-3) | GI50 (U-251) | GI50 (NCI-H23) |
| --- | --- | --- | --- | --- | --- | --- | --- | --- | --- | --- | --- | --- | --- | --- | --- | --- | --- | --- | --- |
| CC(C)(C)[Si](C)(C)OCC1OC(n2ccc(N)nc2=O)C(O[Si](C)(C)C(C)(C)C)C1O[Si](C)(C)C(C)(C)C (configuration not stated) | 3.44 µM (inactive) | 1.47 µM (inactive) | 1.59 µM (inactive) | 1.83 µM (inactive) | 1.71 µM (inactive) | 1.8 µM (inactive) | 1.71 µM (inactive) | 2.07 µM (inactive) | 3.79 µM (inactive) | 2.17 µM (inactive) | 0.0356 µM (active) | 9.59 µM (inactive) | 3.65 µM (inactive) | 2.56 µM (inactive) | 2.01 µM (inactive) | 3.33 µM (inactive) | 1.73 µM (inactive) |  |  |
| O=C1NC(=O)C(COCc2ccccc2)C2=C1SCCC2 (configuration not stated) | > 100 µM (inactive) | > 100 µM (inactive) | > 100 µM (inactive) | > 100 µM (inactive) | > 100 µM (inactive) | > 100 µM (inactive) | > 100 µM (inactive) | > 100 µM (inactive) | > 100 µM (inactive) | > 100 µM (inactive) | > 100 µM (inactive) | > 100 µM (inactive) |  | > 100 µM (inactive) | > 100 µM (inactive) | > 100 µM (inactive) | > 100 µM (inactive) | > 100 µM (inactive) | > 100 µM (inactive) |
| CC12OC1(C)C1C(=O)OCC1C2=O (configuration not stated) | > 100 µM (inactive) |  | 70 µM (inactive) | 14.7 µM (inactive) | > 100 µM (inactive) | 17.6 µM (inactive) | > 100 µM (inactive) | 50.5 µM (inactive) | 99.3 µM (inactive) | > 100 µM (inactive) | > 100 µM (inactive) | > 100 µM (inactive) | 26.7 µM (inactive) | 37.8 µM (inactive) | > 100 µM (inactive) | > 100 µM (inactive) | 38.9 µM (inactive) | > 100 µM (inactive) | > 100 µM (inactive) |
| CCC(C)C(Nc1c2ccccc2nc2c(C(=O)NCCN(C)C)cccc12)C(=O)O (configuration not stated) | 12.3 µM (inactive) | 7.59 µM (inactive) | 9.89 µM (inactive) | 12.7 µM (inactive) | 8.83 µM (inactive) | 12.3 µM (inactive) | 4.8 µM (inactive) | 19.4 µM (inactive) | 18 µM (inactive) | 11.8 µM (inactive) | 5.83 µM (inactive) | 38.1 µM (inactive) | 13.6 µM (inactive) | 13.6 µM (inactive) | 15.7 µM (inactive) |  | 23.6 µM (inactive) | 25.2 µM (inactive) | 20.2 µM (inactive) |
| O=c1[nH]c(=O)c2c([nH]1)[nH]c1ccccc12 | > 100 µM (inactive) | > 100 µM (inactive) | > 100 µM (inactive) | > 100 µM (inactive) | > 100 µM (inactive) | > 100 µM (inactive) | > 100 µM (inactive) | > 100 µM (inactive) | > 100 µM (inactive) | > 100 µM (inactive) | 29.3 µM (inactive) | > 100 µM (inactive) | > 100 µM (inactive) | > 100 µM (inactive) | > 100 µM (inactive) | > 100 µM (inactive) | 65.2 µM (inactive) |  | > 100 µM (inactive) |
| CC(=O)O[C@H]1C[C@H](O[C@H]2[C@@H](O)C[C@H](O[C@H]3[C@@H](O)C[C@H](O[C@H]4CC[C@@]5(C)[C@H](CC[C@@H]6[C@@H]5C[C@@H](O)[C@]5(C)[C@@H](C7=CC(=O)OC7)CC[C@]65O)C4)O[C@@H]3C)O[C@@H]2C)O[C@H](C)[C@H]1O[C@@H]1O[C@H](CO)[C@@H](O)[C@H](O)[C@H]1O [LANATOSIDE C] | 0.0146 µM (active) | 0.018 µM (active) | 0.0322 µM (active) | 0.0137 µM (active) | 0.0559 µM (active) | 0.0678 µM (active) | 0.042 µM (active) | 0.165 µM (active) | 0.167 µM (active) | 0.122 µM (active) | 0.0465 µM (active) | 0.0313 µM (active) |  | 0.0436 µM (active) | 0.0465 µM (active) | 0.238 µM (active) | 0.041 µM (active) | 0.0741 µM (active) | 0.0193 µM (active) |
